According to US10617682B2 (ROSEMAN UNIVERSITY OF HEALTH SCIENCES, priority 2017, dated 2020):

Assays:
[1] = HPLC potency of freshly prepared solution against USP standard prochlorperazine maleate; format: physicochemical
Protocol: The mobile phase consisted of the ion-pairing solution, acetonitrile, and methanol (50:40:10). The ion pairing solution was previously prepared by dissolving 4.33 g of sodium-1-octanesulfonic acid and 4.0 mL glacial acetic acid in 1000 mL of water. The chromatographic separation was achieved using a 3.9 mm×15 cm L1 (C18) column with 5 μm particle size. The flow-rate was 1.5 mL per minute and detection wavelength was 254 nm. The HPLC analysis was carried out by injecting 20 μL of sample into the Waters Alliance HPLC with Waters photodiode array (PDA) detector. Data acquisition and analysis was performed using WATERS® EMPOWER 3 software. The HPLC method was validated according to International Council on Harmonization (ICH) guidelines for various parameters including: linearity, accuracy and precision, robustness, and ruggedness.

[2] = Forced degradation studies by HPLC; format: physicochemical; conditions: 0.1 mg/mL
Protocol: The specificity of the HPLC method to degradation products was also assessed by subjecting prochlorperazine to various forced degradation conditions such as hydrolysis, oxidation, photodegradation, thermal degradation and UV irradiation.
The HPLC method used in this study was able to resolve prochlorperazine sulfoxide distinctly from prochlorperazine edisylate and trifluoperazine. […] Furthermore, forced degradation studies were also performed to assess any other degradation pathways that may interfere with prochlorperazine assay.

[3] = oral route; cited from earlier work

potency compared with USP standard prochlorperazine maleate [1] [%] | degradation under oxidation ([2]; 0.1 M hydrogen peroxide overnight) | degradation under UV irradiation ([2]; ultraviolet radiation overnight) | Structure (SMILES) | degradation under acid hydrolysis ([2]; 0.1 M hydrochloric acid 1 hour) | degradation under base hydrolysis ([2]; 0.1 M sodium hydroxide 1 hour) | degradation under thermal degradation ([2]; 60° C. overnight) | degradation under photodegradation ([2]; laboratory light overnight) | absorption [3]
99.7±2.3 |  |  | CN1CCN(CCCN2c3ccccc3Sc3ccc(Cl)cc32)CC1 [prochlorperazine edisylate] |  |  |  |  | 
 | showed degradation | showed degradation | CN1CCN(CCCN2c3ccccc3Sc3ccc(Cl)cc32)CC1 [prochlorperazine, 2-chloro-10-[3-(4-methylpiperazin-1-yl)propyl]phenothiazine] | did not show prochlorperazine degradation | did not show prochlorperazine degradation | did not show prochlorperazine degradation | did not show prochlorperazine degradation | low and variable absorption
